Results filed as inconclusive are left out. Calls of active or inactive are those of the source. The rule behind the calls is not given here.
System: Mycobacterium tuberculosis non-replicating, growth inhibition
Assay: growth inhibition of non-replicating M. tuberculosis (AID 488890)

SMILES | IC50
Clc1ccc(CN2C3=NCCCN3c3ccccc32)cc1 | 12.3 µM (inactive)
CCOC(=O)CCNC(=O)c1ccc2nc(C3CCCCC3)oc2c1 | 28.8 µM (inactive)
c1ccc(CNCCC(Cc2ccccc2)c2ccco2)cc1 (stereo not given) | 21.6 µM (inactive)
Cc1ccc(/C(O)=C/c2nc3ccccc3oc2=O)cc1 | 4.77 µM
CN(C)CCCNc1nc2sc3c(c2c(=O)n1CCc1ccccc1)CCCCC3 | 12 µM (inactive)
CSc1ccccc1NC(=O)c1cc(C(C)C)on1 | 22.2 µM (inactive)
CCc1nnc(N/N=C/c2ccc(N3CCC(C)CC3)c([N+](=O)[O-])c2)n1N | 3.83 µM
Cc1ccc(NC(=O)CCSc2nnc(Cc3ccccc3)o2)cc1 | 2.05 µM
CCc1ccc(C(C)NC(=O)C2CCCO2)cc1 (stereo not given) | 8.61 µM
CCOCCOC(=O)COc1ccc2c(-c3ccccc3)cc(=O)oc2c1 | 0.98 µM
O=C(c1ccc([N+](=O)[O-])o1)N1CCc2ccccc2C1 | 5.15 µM
CCOC(=O)CCCNC(=O)COC(=O)c1cc(Br)c(Br)s1 | 9.34 µM
Cc1ccc(C(=O)Nc2nnc(C3=COCCO3)o2)cc1C | 9.19 µM
CC(C)(C)c1cc(C(=O)N/N=C/c2ccc([N+](=O)[O-])s2)n[nH]1 | 5.5 µM
CC(C)(C)c1ccc(C(=O)Nc2nnc(C3=COCCO3)o2)cc1 | 3.07 µM
O=C(c1cccs1)N1CCN(c2ccc(Cl)cc2)CC1 | 27.2 µM (inactive)
CC1=NN(C(=O)c2ccccc2Cl)C(O)(c2ccccc2)C1 (stereo not given) | 1.43 µM
Cc1ccn2nc(S(=O)(=O)Nc3c(F)cccc3F)nc2n1 | 17.5 µM (inactive)
Cc1ccc(NC(=O)COc2ccc(-n3ccnc3)cc2)cc1Cl | 6.44 µM
O=c1c(O)c(-c2cccs2)oc2ccc(Cl)cc12 | 1.08 µM
Cc1ccc2nc(C)c3c(c2c1)SCC3 | 11.6 µM (inactive)
CCC(C)[C@H]1CN=C(N)N1CCc1cccc2ccccc12 (stereo not given in full) | 12.5 µM (inactive)
Cc1ccc(S(=O)(=O)/N=C(\CCl)N2CCOCC2)cc1 | 11.9 µM (inactive)

SMILES | IC50
Cc1oc(=O)c(NC(=O)c2ccccc2)cc1C(=O)c1ccccc1 | 5.33 µM
Cc1nonc1C(=O)N/N=C/c1ccc([N+](=O)[O-])o1 | 10.1 µM (inactive)
COc1ccccc1C(=O)OCC(=O)Nc1ccc(Cl)cn1 | 16.2 µM (inactive)
CC(C)(C)c1ccc(Cn2c(=N)n(CC(O)c3ccco3)c3ccccc32)cc1 (stereo not given) | 7.36 µM
COc1ccc2c([N+](=O)[O-])c(N3CCCC3)[nH]c2c1 | 36 µM (inactive)
O=C(CN1CCN(c2ccccc2)CC1)Nc1nnc(-c2ccccc2)s1 | 9.53 µM
CC1=NN(C(=O)COc2ccccc2)C(O)(c2ccccc2)C1 (stereo not given) | 1.36 µM
C=CCNc1nnc(Sc2ncccc2[N+](=O)[O-])s1 | 4.7 µM
Fc1ccc(-c2nn(-c3ccccc3)cc2CNCc2ccccc2)cc1 | 8.72 µM
O=C(Oc1ccccc1)c1ccc(NC(=O)c2ccco2)cc1 | 7.33 µM
Cc1ccc(C(=O)N/N=C\c2ccc[nH]2)cn1 | 16.9 µM (inactive)
Oc1c(Cl)cc(CN2CCOCC2)c2cccnc12 | 2.53 µM
CCOC(=O)C1=C(C)C/C(=N\NC(=O)c2ccccc2O)CC1 | 4.22 µM
Cn1cccc1/C=N\NC(=O)C1COc2ccccc2O1 (stereo not given) | 13.2 µM (inactive)
CCCCNC(=O)Nc1nnc(-c2ccc(Cl)cc2)o1 | 22.8 µM (inactive)
CCOC(=O)N1CCC(NS(=O)(=O)c2cc3c(cc2Cl)NC(=O)CO3)CC1 | 4.67 µM
CN1CCN(c2ccc(NC(=O)c3ccc(-c4ccc(Cl)cc4)o3)cc2)CC1 | 5.1 µM
N/C(=N/OC(=O)c1ccc(Cl)cc1)c1ncc([N+](=O)[O-])s1 | 7.53 µM
CS(=O)(=O)Cc1nc2ccccc2oc1=O | 3.18 µM
Cn1cnc([N+](=O)[O-])c1Sc1ccc(Br)cc1 | 23.6 µM (inactive)
O=C1OC(/C(=C\Nc2cc(Cl)ccc2O)[N+](=O)[O-])c2ccccc21 (stereo not given) | 7.86 µM
N=c1oc2ccc(Cl)cc2cc1C(=O)NC1CCCCCC1 | 11.6 µM (inactive)
O=Cc1ccc(-c2ccc(Cl)cc2Cl)[nH]1 | 17.3 µM (inactive)

SMILES | IC50
COC(=O)CCS(=O)(=O)c1nc(-c2ccccc2)cc(C(F)(F)F)n1 | 2.25 µM
O=C(Nc1cccc(NC(=O)c2cccs2)c1)c1ccc([N+](=O)[O-])o1 | 5.43 µM
O=c1c2c(nc3c(-c4ccc(Cl)cc4)c[nH]n13)CCC2 | 4.22 µM
Cc1cccc(C)c1NC(=O)COC(=O)CCc1c[nH]c2ccccc12 | 19.3 µM (inactive)
Cn1cccc1/C=C1/C(=O)NC(=S)N(Cc2ccc(F)cc2)C1=O | 6.03 µM
O=c1c2c(nc3c(-c4ccccc4)c[nH]n13)CCCC2 | 21.1 µM (inactive)
CCOC(=O)Cn1cc(C#N)c2cccc(CC)c21 | 9.18 µM
CCOC(=O)c1c(-c2ccccc2)csc1NC(=O)CCN1CCOCC1 | 24.4 µM (inactive)
O=C(COc1ccc2ccccc2c1Br)N1CCCC1 | 0.56 µM
CCn1cc(/C=N\NC(=O)c2ccc(F)cc2)cn1 | 24.3 µM (inactive)
O=C(CCNc1cccc(F)c1)c1cccc([N+](=O)[O-])c1 | 5.37 µM
COc1ccc2c(c1)sc(=N)n2C | 19.3 µM (inactive)
CN1CCC(O)(c2ccc(Cl)cc2)C(C(=O)c2ccc(Cl)cc2)C1 (stereo not given) | 1.97 µM
Cc1occc1C(=O)N/N=C/c1ccc[nH]1 | 11.9 µM (inactive)
CC(Oc1ccc(Cl)cc1)C(=O)NNC(=S)NC(=O)c1ccco1 (stereo not given) | 22.3 µM (inactive)
CCOC(=O)c1sc(NC(=O)CCN2CC(C)OC(C)C2)c(C(=O)OCC)c1C (stereo not given) | 21.8 µM (inactive)
Cc1ccn2c(Nc3ccccc3)c(-c3ccccn3)nc2c1 | 10.4 µM (inactive)
CC1=NN(C(=O)c2ccc(Cn3nc(C)c(Br)c3C)cc2)C(O)(C(F)(F)F)C1 (stereo not given) | 0.58 µM
COc1ccc(CN2C(=O)/C(=C/c3ccncc3)SC2=S)cc1 | 39.3 µM (inactive)
CC1(c2nnc(-c3ccc(F)cc3)o2)CC(c2cccc(Cl)c2)=NO1 (stereo not given) | 2.9 µM
O=C(NCC1CCN(c2ccc(S(=O)(=O)N3CCOCC3)cc2)CC1)c1ccc(Cl)cc1 | 24.1 µM (inactive)
Cc1ccc(N2C(=O)CC(Sc3nccc(C)n3)C2=O)cc1 (stereo not given) | 29.6 µM (inactive)
Oc1ccccc1Nc1nc(NCC2CCCO2)c2ccccc2n1 (stereo not given) | 30.7 µM (inactive)

SMILES | IC50
O=C(Nc1ccc(Br)cc1)c1cc([N+](=O)[O-])cc([N+](=O)[O-])c1 | 2.63 µM
CC(C)c1ccc(/C=N/NC(=O)c2ccccn2)cc1 | 12.9 µM (inactive)
COc1cccc(C(=O)OCC(=O)c2ccc(Br)s2)c1OC | 9.02 µM
COc1ccc(Cc2nnc(-c3ccccc3)o2)cc1 | 0.19 µM
CC1=NN(C(=O)c2ccc(Br)cc2)C(O)(c2ccccc2)C1 (stereo not given) | 0.47 µM
O=C(NC1CCCC1)c1cc(-c2cccs2)on1 | 5.66 µM
Cc1cc(=O)n2cccc(O)c2n1 | 6.1 µM
c1ccc(-c2ccccc2OCCCCn2ccnc2)cc1 | 33.5 µM (inactive)
CC1=NN(C(=O)c2csc(C)c2C)C(O)(C(F)(F)F)C1 (stereo not given) | 0.4 µM
CCOC(=O)CCSc1n[nH]c(=S)s1 | 11.7 µM (inactive)
CC(C)CN1C(=O)/C(=C(/C#N)C(=O)NC2CCCCC2)c2ccccc21 | 25.9 µM (inactive)
CCCCCCn1c(=O)c(C(=O)Nc2cnccn2)c(O)c2ccccc21 | 2.4 µM
O=C(COc1c(Br)cc(Br)c2cccnc12)N1CCCCC1 | 9.93 µM
CC(=O)c1cccc(NC(=O)C2COc3ccccc3O2)c1 (stereo not given) | 24 µM (inactive)
O=C(N/N=C/c1c(O)ccc2ccccc12)c1ccc(Br)o1 | < 0.1 µM
CC(NC(=O)c1cc2ccccc2oc1=O)c1ccccc1 (stereo not given) | 0.86 µM
CCn1c2ccccc2c2cc(CNCc3ccc(OC)cc3OC)ccc21 | 7.41 µM
CN(C)CCCn1c(=O)n(CCc2ccccc2)c(=O)c2c3c(sc21)CCCCC3 | 16.9 µM (inactive)
O=C(O)CCCCCN1C(=O)CSC1=S | 19.9 µM (inactive)
NC(=O)c1ccc(-c2ccc(Br)cc2)o1 | 1.93 µM
CN(C(=O)COC(=O)c1ccc([N+](=O)[O-])cc1Cl)C1CCCCC1 | 5.88 µM
CCOC(=O)c1cc(-c2csc(COc3ccc(Cl)cc3)n2)on1 | 0.13 µM
Cc1nn(C)cc1/C=N/NC(=O)c1sc2ccccc2c1Cl | 27.8 µM (inactive)

SMILES | IC50
Cc1cccc(CC(=O)NCC2CCCCC2)c1 | 16.7 µM (inactive)
O=C(OCC(=O)c1c[nH]c2ccccc12)c1ccc([N+](=O)[O-])s1 | 0.79 µM
CCOC(=O)c1ccc(-c2ccc(C(=O)Nc3cccnc3)o2)cc1 | 0.84 µM
COc1ccc(Cc2nnc(SCc3ccc([N+](=O)[O-])cc3)o2)cc1 | 3.16 µM
CCOC(=O)C(=NCCOC)NNc1cc(Cl)ccc1Cl | 30.4 µM (inactive)
O=C1CC(N2CCN(Cc3ccccc3)CC2)C(=O)N1CCc1ccccc1 (stereo not given) | 22.3 µM (inactive)
C=Cc1cccc(NC(=O)COc2ccccc2)c1 | 5.75 µM
CC(C)OC(=O)c1cc(C(=O)c2cc(Cl)ccc2O)coc1=N | 4.66 µM
Cc1ccccc1NCC(=O)N/N=C\c1ccc([N+](=O)[O-])s1 | 3.57 µM
COc1cc(OC)c2c(OC)cccc2n1 | 6.63 µM
C#CCSc1nnc(-c2ccc(O)cc2)o1 | 7.34 µM
CC(Cc1ccccc1Sc1ccccc1)N(C)C (stereo not given) | 26 µM (inactive)
CCC(=O)c1ccc(OCc2ccc(C(=O)OC)cc2)cc1 | 10.8 µM (inactive)
Cc1nc([N+](=O)[O-])c(Br)n1Cc1ccccc1 | 14.1 µM (inactive)
Cc1ccc(NC(=O)C(=O)NNC(=O)c2ccccc2C)cc1Cl | 2.67 µM
CC(=O)c1ccc(NC(=O)C(Cc2ccccc2)n2cccc2)cc1 (stereo not given) | 12.5 µM (inactive)
O=[N+]([O-])c1ccc(CN2CCN(c3ccccc3Cl)CC2)o1 | 3.83 µM
O=C(Nc1nnc(C2CC2)o1)c1ccc(S(=O)(=O)N2CCCCC2)cc1 | 29.8 µM (inactive)
CCCC(=O)OCCNc1cc(Sc2nccn2C)c2nonc2c1[N+](=O)[O-] | 2.57 µM
CCc1ccc(C(=O)COC(=O)c2ccc(Cl)nc2)cc1 | 17.3 µM (inactive)
COc1ccccc1C1=Nn2c(nnc2C2CCCCC2)SC1 | 13.9 µM (inactive)
C=CCNCC(=O)N1N=C(c2ccc3ccccc3c2)CC1c1ccc(OC)cc1 (stereo not given) | 20.6 µM (inactive)
COc1cc(/C=N/NC(=O)c2ccncc2)ccc1OC(=O)c1cccc(F)c1 | 3.53 µM
